Results taken from the Deep4Chem optical property database.

Experiment: solvent given as SMILES

In the case of CC1(C)C(/C=C/C=C/C=C/C=C2/N(CCCCS(=O)(=O)[O-])c3ccc4ccccc4c3C2(C)C)=[N+](CCCCS(=O)(=O)[O-])c2ccc3ccccc3c21, the fluorescence lifetime (in CC(C)=O) is reported as 0.87 ns, the fluorescence lifetime (in CCO) is reported as 0.62 ns and the fluorescence lifetime (in CO) is reported as 0.51 ns. It also gave a fluorescence lifetime (in CS(C)=O) of 0.97 ns, a fluorescence lifetime (in ClC(Cl)Cl) of 1.14 ns and a fluorescence lifetime (in ClCCl) of 0.91 ns. For the same molecule, the fluorescence lifetime (in O) was 0.17 ns.
With CCOc1ccc(/C=C/C=C/C=C/c2ccc([N+](=O)[O-])cc2)cc1 the fluorescence lifetime (in Cc1ccccc1) was 1.5 ns.
For COc1cc(OC)cc(C2=[O+][B-](F)(F)OC(c3ccc4cc(OC)ccc4c3)=C2)c1, the fluorescence lifetime (in ClCCl) was 4.32 ns.
Work on CCNc1cc2oc3c/c(=[NH+]\CC)c(C)cc-3c(-c3ccccc3C(=O)OCC)c2cc1C yielded a fluorescence lifetime (in CC#N) of 4.18 ns, a fluorescence lifetime (in CC(C)O) of 3.96 ns and a fluorescence lifetime (in CCCCCCCCO) of 3.83 ns. It also gave a fluorescence lifetime (in CCCCCCO) of 3.88 ns, a fluorescence lifetime (in CCCCO) of 3.89 ns and a fluorescence lifetime (in CCCO) of 3.95 ns. It also gave a fluorescence lifetime (in CCO) of 3.96 ns, a fluorescence lifetime (in CN(C)C=O) of 3.86 ns and a fluorescence lifetime (in CO) of 3.7 ns. The fluorescence lifetime (in O) was 4.22 ns and the fluorescence lifetime (in [2H]O[2H]) was 4.36 ns.
Work on c1ccc(-c2nc(-c3ccccc3)nc(-c3cc(-n4c5ccccc5c5ccccc54)c(-n4c5ccccc5c5ncccc54)c(-n4c5ccccc5c5ccccc54)c3)n2)cc1 yielded a fluorescence lifetime (in O=P(c1ccccc1)(c1ccccc1)c1ccc2oc3ccc(P(=O)(c4ccccc4)c4ccccc4)cc3c2c1) of 20.4 ns.
Work on CCCCCCN1C(=O)c2cccc3cc(/N=C\c4cnc5ccccc5c4)cc(c23)C1=O yielded a fluorescence lifetime (in ClC(Cl)Cl) of 13.7 ns.
Molecule O=c1c2cccc3cccc(c32)c2nc3ccccc3n12 has a fluorescence lifetime (in ClCCl) of 11.1 ns.
Work on C(=C\c1ccccc1/C=C/c1c2ccccc2cc2ccccc12)/c1ccncc1 yielded a fluorescence lifetime (in C1CCOC1) of 3.38 ns.
Cc1ccc(-c2sc(/C(C#N)=C/c3ccc(C#N)cc3)nc2-c2ccc(Cl)cc2)cc1 gave a fluorescence lifetime (in CC#N) of 3.02 ns.
c1ccc2c(-n3c4ccccc4c4ccccc43)cccc2c1 gave a fluorescence lifetime (in C1CCCCC1) of 4.9 ns, a fluorescence lifetime (in CCOC(C)=O) of 4.9 ns and a fluorescence lifetime (in CO) of 5.1 ns.
c1ccc(C[n+]2cc3ccc4c[n+](Cc5ccccc5)cc5ccc(c2)c3c45)cc1 showed a fluorescence lifetime (in CC#N) of 4.3 ns.
For CCn1c2ccccc2c2c3nsnc3c3c4ccccc4n(CC)c3c21, the fluorescence lifetime (in CN(C)C=O) was 1.07 ns, the fluorescence lifetime (in Cc1ccccc1) was 0.97 ns and the fluorescence lifetime (in ClCCl) was 1 ns.
Work on COc1ccc(-c2c3ccc([nH]3)c3nc(c(-c4ccc([N+](=O)[O-])cc4)c4ccc([nH]4)c4ccc([nH]4)c(-c4ccc(OC)cc4)c4ccc2o4)C=C3)cc1 yielded a fluorescence lifetime (in C1CCOC1) of 0.66 ns, a fluorescence lifetime (in Cc1ccccc1) of 4.33 ns and a fluorescence lifetime (in c1ccccc1) of 4.2 ns.
With O=Cc1ccc2c(c1)c1ccccc1n2-c1ccc(-c2ccc(-n3c4ccccc4c4cc(C=O)ccc43)cc2)cc1 the fluorescence lifetime (in ClCCl) was 1 ns.
In the case of COc1nc(Cl)nc(Nc2ccc3c4c(cccc24)C(=O)c2ccccc2-3)n1, the fluorescence lifetime (in CC#N) is reported as 8.4 ns, the fluorescence lifetime (in CC(C)=O) is reported as 7.7 ns and the fluorescence lifetime (in CC(C)O) is reported as 8 ns. It also gave a fluorescence lifetime (in CCCCOCCCC) of 0.9 ns, a fluorescence lifetime (in CCOC(C)=O) of 3.9 ns and a fluorescence lifetime (in CCOCC) of 1.6 ns. The fluorescence lifetime (in CO) was 7.7 ns, the fluorescence lifetime (in Cc1ccccc1) was 2.8 ns and the fluorescence lifetime (in Clc1ccccc1) was 5.4 ns. It also gave a fluorescence lifetime (in N#Cc1ccccc1) of 7.8 ns and a fluorescence lifetime (in O=C1CCCCC1) of 6.3 ns.
CC[n+]1nc2cc3c4c(c2c2ccccc21)CCCN4CCC3 showed a fluorescence lifetime (in O) of 3.6 ns.
For CCN(CC)c1ccc2cc3ccc(=[N+](CC)CC)cc-3oc2c1, the fluorescence lifetime (in CC#N) was 4.18 ns, the fluorescence lifetime (in CCO) was 3.89 ns and the fluorescence lifetime (in CN(C)C=O) was 3.87 ns. The fluorescence lifetime (in O) was 4.07 ns.
For Cc1ccc(C2=C3C=C(I)C=[N+]3[B-](F)(F)n3c2cc(I)c3I)cc1, the fluorescence lifetime (in C1CCCCC1) was 0.327 ns, the fluorescence lifetime (in CC#N) was 0.142 ns and the fluorescence lifetime (in CCO) was 0.196 ns. The fluorescence lifetime (in CCOC(C)=O) was 0.207 ns, the fluorescence lifetime (in CO) was 0.179 ns and the fluorescence lifetime (in OCC(F)(F)F) was 0.185 ns.
In the case of [O-][n+]1c(-c2ccccc2)cc(N2CCOCC2)nc1/C=C/c1ccccc1, the fluorescence lifetime (in ClCCl) is reported as 4.76 ns.
In the case of COc1ccc2c(c1)C(=O)c1cc(OC)cc(OC)c1-2, the fluorescence lifetime (in C1CCCCC1) is reported as 1.3 ns and the fluorescence lifetime (in CC#N) is reported as 0.6 ns.
Molecule CC(C)c1cccc(C(C)C)c1N1C(=O)c2cccc3c(Oc4ccc(Cl)cc4)ccc(c23)C1=O has a fluorescence lifetime (in ClCCl) of 3.95 ns.
Work on CCCCN1C(=O)c2cc(Oc3ccc(C(C)(C)C)cc3)c3c4c(Oc5ccc(C(C)(C)C)cc5)c(Oc5ccc(C(C)(C)C)cc5)c5c6c(cc(Oc7ccc(C(C)(C)C)cc7)c(c7c(Oc8ccc(C(C)(C)C)cc8)c(Oc8ccc(C(C)(C)C)cc8)c(c2c37)C1=O)c64)C(=O)N(CCCC)C5=O yielded a fluorescence lifetime (in ClC(Cl)Cl) of 6.3 ns.
